The term IC50 denotes the concentration at which inhibition is half-maximal.

The test system of the assay is P. falciparum K1 (strain resistant to chloroquine and pyrimethamine), erythrocytic stages. The assay can be described thus: Plasmodium falciparum in vitro assay, [3H] hypoxanthine incorporation. It counts as cell-based. As to conditions: Plasmodium falciparum, K1, P. falciparum strain K1; [3H] hypoxanthine incorporation; read-out: IC50 (nM) on K1. In short, it runs like this:
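Chloroquine/pyrimethamine-resistant K1 erythrocytic cultures (2.5% haematocrit, 0.3% parasitaemia, hypoxanthine-free RPMI with Albumax) exposed to seven doubling dilutions at 37 °C under low O2.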
As for `Cc1nn(C)c(C)c1C=CC(=O)N(Cc1ccc(-c2cncnc2)cc1)[C@@H](Cc1ccccc1)C(=O)N1CCC(N(C)C)CC1` [Example 36, (S)-N-[1-Benzyl-2-(4-dimethylamino-piperidin-1-yl)-2-oxo-ethyl]-N-(4-pyrimidin-5-yl-benzyl)-3-(1,3,5-trimethyl-1H-pyrazol-4-yl)-acrylamide], the 50% inhibitory concentration (IC50) is 173 nM.

For `CC(=O)N1CCN(c2ccc(CN(C(=O)C=Cc3ccc(C(F)(F)F)cc3)[C@@H](Cc3ccccc3)C(=O)N(C)CCO)cc2)CC1` [Example 176, (S)-N-[4-(4-Acetyl-piperazin-1-yl)-benzyl]-N-{1-[(2-hydroxy-ethyl)-methyl-carbamoyl]-2-phenyl-ethyl}-3-(4-trifluoromethyl-phenyl)-acrylamide], the IC50 was found to be 51 nM.

For the molecule `COCCN(C)C(=O)[C@H](Cc1ccccc1)N(Cc1ccc(-c2ccccn2)cc1)C(=O)C=Cc1cnc(C)nc1` [Example 83, (S)-N-{1-[(2-Methoxy-ethyl)-methyl-carbamoyl]-2-phenyl-ethyl}-3-(2-methyl-pyrimidin-5-yl)-N-(4-pyridin-2-yl-benzyl)-acrylamide], the half-inhibitory concentration (IC50) came to 209 nM.

Turning to `CN(CCN(C)C(=O)[C@H](Cc1ccccc1)N(Cc1ccc(N2CCOCC2)cc1)C(=O)C=Cc1ccc(C(F)(F)F)cc1)Cc1cccc(OCCO)c1` [Example 260, (S)-N-{1-[(2-{[3-(2-Hydroxy-ethoxy)-benzyl]-methyl-amino}-ethyl)-methyl-carbamoyl]-2-phenyl-ethyl}-N-(4-morpholin-4-yl-benzyl)-3-(4-trifluoromethyl-phenyl)-acrylamide], the IC50 stood at 14 nM.

As to `COCCN(C)C(=O)C(Cc1cnn(C)c1)N(Cc1ccc(-c2ccccn2)cc1)C(=O)C=Cc1ccc(C(F)(F)F)cc1` (racemic) [Example 164], the IC50 stood at 247 nM.

For `COCCN(C)C(=O)[C@H](Cn1cccc1)N(Cc1ccc(-c2ccccn2)cc1)C(=O)C=Cc1ccc(C(F)(F)F)cc1` [Example 163, (S)-N-{1-[(2-Methoxy-ethyl)-methyl-carbamoyl]-2-pyrrol-1-yl-ethyl}-N-(4-pyridin-2-yl-benzyl)-3-(4-trifluoromethyl-phenyl)-acrylamide], the half-maximal inhibitory concentration (IC50) is 37 nM.

On to `Cc1nn(C)c(C)c1C=CC(=O)N(Cc1ccc(-c2ccccn2)cc1)[C@@H](Cc1ccccc1)C(=O)N1CCC(N(C)C)CC1` [Example 9, (S)-N-[1-Benzyl-2-(4-dimethylamino-piperidin-1-yl)-2-oxo-ethyl]-N-(4-pyridin-2-yl-benzyl)-3-(1,3,5-trimethyl-1H-pyrazol-4-yl)-acrylamide], for which the IC50 amounted to 69 nM.

Regarding `C=CCOCCN(C)C(=O)[C@H](Cc1ccccc1)N(Cc1ccc(N2CCN(C(C)=O)CC2)cc1)C(=O)C=Cc1ccc(C(F)(F)F)cc1` [Example 212, (S)-N-[4-(4-Acetyl-piperazin-1-yl)-benzyl]-N-{1-[(2-allyloxy-ethyl)-methyl-carbamoyl]-2-phenyl-ethyl}-3-(4-trifluoromethyl-phenyl)-acrylamide], the IC50 came to 20 nM.

Regarding `COCCN(C)C(=O)[C@H](Cc1ccccc1)N(Cc1ccc(-c2ccccn2)cc1)C(=O)C=Cc1cc(C)on1` [Example 79, (S)-N-{1-[(2-Methoxy-ethyl)-methyl-carbamoyl]-2-phenyl-ethyl}-3-(5-methyl-isoxazol-3-yl)-N-(4-pyridin-2-yl-benzyl)-acrylamide], the IC50 came to 288 nM.

Regarding `COCCN(C)C(=O)[C@H](Cc1ccccc1)N(Cc1ccc(N2CCOCC2)cc1)C(=O)C=Cc1ccc(Cl)nc1` [Example 70, (S)-3-(6-Chloro-pyridin-3-yl)-N-{1-[(2-methoxy-ethyl)-methyl-carbamoyl]-2-phenyl-ethyl}-N-(4-morpholin-4-yl-benzyl)-acrylamide], the IC50 is 144 nM.

Consider `CN(C)[C@@H]1CCN(C(=O)[C@H](Cc2ccccc2)N(Cc2ccc(-c3ccccn3)cc2)C(=O)C=Cc2ccc(C(F)(F)F)cc2)C1` [Example 53, N-[(S)-1-Benzyl-2-((R)-3-dimethylamino-pyrrolidin-1-yl)-2-oxo-ethyl]-N-(4-pyridin-2-yl-benzyl)-3-(4-trifluoromethyl-phenyl)-acrylamide], for which the IC50 was 14 nM.

The record behind these values is patent publication US20110224210A1, “NOVEL BIS-AMIDES AS ANTI-MALARIAL AGENTS” (priority 2008, published 2011).
